Bridge positions count the residues as written; N and C are the ends. Ends that are not written are not given here. Peptide text beside a SMILES is read from it.
Columns and labels:
rKv1.1 = target: T1, rKv1.1 (Rattus norvegicus, UniProt P10499); experiment: two-electrode voltage-clamp, rKv1.1 in Xenopus oocytes; type: cell-based
T1 construct: expressed in transfected cells; host or cells: Xenopus oocytes injected with cRNA (clone in pGEM, T7 promoter)
Protocol: (§1) For the expression of Kv channels (rKv1.1–rKv1.4 and Shaker IR) and Nav channels (rNav1.1, rNav1.2, rNav1.4, rNav1.5 and mNav1.6) in Xenopus oocytes, the linearized plasmids were transcribed with the T7 or SP6 mMESSAGE-mMACHINE transcription kits (Supplementary Table S2, available at http://www.bioscirep.org/bsr/033/bsr033e047add.htm). Oocytes were digested for 1–2 h at room temperature in Ca^2+-free ND96 (in mM: NaCl, 96; KCl, 2; […]; MgCl2, 2 and Hepes, 5, adjusted to pH 7.4 with NaOH) containing 0.5 mg/ml collagenase (type I, sigma). Oocytes were injected with 0.5 ng of cRNA by NANOLITER 2000 (World Precision Instruments Inc.). The oocytes were incubated in ND96 solution supplemented with 50 mg/l gentamycin sulfate at 18°C.
(§2) Ion channel currents were recorded 1–3 days after injection with Oocyte Clamp OC-725C (Warner Instument Corp.) and Digidata 1440A (Axon CNS, Molecular Devices) controlled by pCLAMP10 software (Axon). […] All data were recorded from at least three independent oocytes (n≥3) and are presented as mean±S.E.. […] Data were analysed by pCLAMP 10 (Molecular Devices) and SigmaPlot 10.0 (Systat Software).

mice = conditions: intracerebroventricular inoculation; cited from earlier work
Protocol: It has been reported that the lethality of MCa on mice after intracerebroventricular inoculation (LD50=20 μg/mouse); however, the molecular basis remains unsolved so far.

[1] = target: T2, Drosophila Shaker channel (Shaker IR) (Drosophila melanogaster, UniProt P08510, DEL6-46); experiment: two-electrode voltage-clamp, Shaker channel in Xenopus oocytes; type: cell-based; conditions: for activity on the Shaker channel after C-terminal modification: Figure 6 modified peptides at 10 μM, n=3, GP deletion: results not shown
T2 construct: expressed in transfected cells; host or cells: Xenopus oocytes injected with cRNA (clone in pBluescript, T7 promoter)
Protocol: as §1
Ion channel currents were recorded 1–3 days after injection with Oocyte Clamp OC-725C (Warner Instument Corp.) and Digidata 1440A (Axon CNS, Molecular Devices) controlled by pCLAMP10 software (Axon). Pipettes were pulled by P-97 FLAMING/BROWN Micropipette Puller (Sutter Instrument Co.) with resistance of 0.1–1.0 MΩ when filled with 3 M KCl. rKv1.1–rKv1.4 and Shaker currents were evoked by 250 ms depolarization to 0 mV followed by a 250 ms pulse to −50 mV, from a holding potential of −90 mV. rNav1.1, 1.2, 1.4, 1.5 and mNav1.6 currents were evoked by 100 ms depolarization to −10 mV from a holding potential of −90 mV. All data were recorded from at least three independent oocytes (n≥3) and are presented as mean±S.E.. Leak subtraction was carried out with a P/4 protocol. Data were analysed by pCLAMP 10 (Molecular Devices) and SigmaPlot 10.0 (Systat Software).

[2] = stability to non-enzymatic hydrolysis during oxidative refolding; type: physicochemical; conditions: 0.1 M Tris–HCl pH 8.0, 0.5 mM peptide, 25°C, 48 h; for chemical stability (non-enzymatic hydrolysis, Val35–Gly36 peptide bond): RP-HPLC / MALDI-TOF-MS
Protocol: λ-MK1 and λ-MK1a in their reduced form were chemically synthesized by ChinaPeptides Co., Ltd. and Scilight-Peptide Inc., respectively. For oxidative refolding, peptide samples were dissolved in 0.1 M Tris–HCl buffer (pH 8.0) to a final concentration of 0.5 mM and incubated at 25°C for 48 h. Peptides were purified by RP-HPLC (reversed-phase HPLC). Purity and molecular masses of peptides were determined by MALDI-TOF-MS on a Kratos PC Axima CFR plus (Shimadzu Co. LTD).

[3] = tested on: sarcoplasmic reticulum Ca^2+ release channels/ryanodine receptors of skeletal and cardiac muscles; conditions: cited from earlier work
Description: The ICK fold is an exceptionally stable structural motif comprising an embedded ring formed by two disulfide bridges (Cys^1–Cys^4 and Cys^2–Cys^5) and their connecting backbone segments, which is threaded by a third disulfide bridge (Cys^3–Cys^6).

Na^+ channel = tested on: Na^+ channel; design: method as in PMID 21665957; conditions: cited from earlier work
[4] = tested on: apamin-sensitive SKCa channels; conditions: cited from earlier work
Description: This is further strengthened by the evolutionary conservation of these two residues in all the members of λ-KTx subgroup. To further investigate the functional significance of this region, we carried out C-terminal amidation, a common post-translational modification for many toxins from venoms of scorpions, spiders and cone snails. The amidated peptide (named λ-MK1a) was oxi ...

rKv1.2 = experiment: two-electrode voltage-clamp, rKv1.2 in Xenopus oocytes; type: cell-based; conditions: 10 μM, 250 ms depolarization to 0 mV from −90 mV, mean±S.E. (n=3)
Protocol: as §1, §2

rKv1.3 = experiment: two-electrode voltage-clamp, rKv1.3 in Xenopus oocytes; type: cell-based; conditions: 10 μM, 250 ms depolarization to 0 mV from −90 mV, mean±S.E. (n=3)
Protocol: as §1, §2

rKv1.4 = experiment: two-electrode voltage-clamp, rKv1.4 in Xenopus oocytes; type: cell-based; conditions: 10 μM, 250 ms depolarization to 0 mV from −90 mV, mean±S.E. (n=3)
Protocol: as §1, §2

[5] = target: Drosophila Shaker K+ channel (Shaker IR) (Drosophila) (UniProt P08510)
[6] = target: rKv1.1 (not stated (printed rKv1.1, called mammalian; r read as rat)) (UniProt P10499)
[7] = target: rKv1.1 (not stated (printed rKv1.1, called mammalian; r read as rat)) (UniProt P10499); remark: listed apart in the source
[8] = target: rKv1.2 (not stated (printed rKv1.1-rKv1.4, called mammalian; r read as rat)) (UniProt P63142)
[9] = target: rKv1.3 (not stated (printed rKv1.1-rKv1.4, called mammalian; r read as rat)) (UniProt P15384)
[10] = target: rKv1.4 (not stated (printed rKv1.4, called mammalian; r read as rat)) (UniProt P15385)
Sequence of rKv1.4 (not stated (printed rKv1.4, called mammalian; r read as rat)) (P15385 whole entry): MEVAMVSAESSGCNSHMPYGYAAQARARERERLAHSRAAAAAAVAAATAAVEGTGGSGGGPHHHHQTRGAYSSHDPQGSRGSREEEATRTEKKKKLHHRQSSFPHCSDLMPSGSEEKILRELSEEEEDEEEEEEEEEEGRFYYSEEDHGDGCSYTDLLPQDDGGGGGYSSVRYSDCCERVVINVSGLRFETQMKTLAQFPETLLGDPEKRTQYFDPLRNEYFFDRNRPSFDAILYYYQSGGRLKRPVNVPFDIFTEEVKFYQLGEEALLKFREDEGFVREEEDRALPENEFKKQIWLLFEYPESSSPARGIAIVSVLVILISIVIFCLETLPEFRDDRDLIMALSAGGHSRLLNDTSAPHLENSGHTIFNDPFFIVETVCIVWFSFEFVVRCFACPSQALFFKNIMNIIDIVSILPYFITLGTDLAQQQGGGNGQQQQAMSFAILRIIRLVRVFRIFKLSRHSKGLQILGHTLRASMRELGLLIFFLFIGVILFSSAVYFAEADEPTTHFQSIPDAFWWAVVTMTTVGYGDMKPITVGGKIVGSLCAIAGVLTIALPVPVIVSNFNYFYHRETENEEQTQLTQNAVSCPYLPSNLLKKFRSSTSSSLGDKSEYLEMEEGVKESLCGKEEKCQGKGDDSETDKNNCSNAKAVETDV

T2 sequence (P08510 with tags, fused parts or gaps DEL6-46): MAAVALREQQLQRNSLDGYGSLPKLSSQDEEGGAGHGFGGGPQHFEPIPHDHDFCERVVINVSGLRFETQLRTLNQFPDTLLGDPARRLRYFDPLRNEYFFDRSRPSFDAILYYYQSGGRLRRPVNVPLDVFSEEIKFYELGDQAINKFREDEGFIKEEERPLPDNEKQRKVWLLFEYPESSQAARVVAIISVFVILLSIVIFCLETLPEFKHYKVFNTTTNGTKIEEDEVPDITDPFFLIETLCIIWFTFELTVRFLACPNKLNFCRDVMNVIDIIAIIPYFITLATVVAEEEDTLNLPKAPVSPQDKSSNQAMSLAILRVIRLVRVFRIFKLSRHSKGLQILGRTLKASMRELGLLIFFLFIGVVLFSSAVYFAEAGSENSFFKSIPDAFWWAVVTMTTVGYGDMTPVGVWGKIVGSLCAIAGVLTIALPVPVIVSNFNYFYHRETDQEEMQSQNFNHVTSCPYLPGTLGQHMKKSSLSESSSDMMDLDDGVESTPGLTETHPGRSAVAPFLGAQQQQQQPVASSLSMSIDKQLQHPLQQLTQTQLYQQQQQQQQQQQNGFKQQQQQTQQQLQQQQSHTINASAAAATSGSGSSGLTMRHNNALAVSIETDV
Sequence of rKv1.1 (not stated (printed rKv1.1, called mammalian; r read as rat)) (P10499 whole entry): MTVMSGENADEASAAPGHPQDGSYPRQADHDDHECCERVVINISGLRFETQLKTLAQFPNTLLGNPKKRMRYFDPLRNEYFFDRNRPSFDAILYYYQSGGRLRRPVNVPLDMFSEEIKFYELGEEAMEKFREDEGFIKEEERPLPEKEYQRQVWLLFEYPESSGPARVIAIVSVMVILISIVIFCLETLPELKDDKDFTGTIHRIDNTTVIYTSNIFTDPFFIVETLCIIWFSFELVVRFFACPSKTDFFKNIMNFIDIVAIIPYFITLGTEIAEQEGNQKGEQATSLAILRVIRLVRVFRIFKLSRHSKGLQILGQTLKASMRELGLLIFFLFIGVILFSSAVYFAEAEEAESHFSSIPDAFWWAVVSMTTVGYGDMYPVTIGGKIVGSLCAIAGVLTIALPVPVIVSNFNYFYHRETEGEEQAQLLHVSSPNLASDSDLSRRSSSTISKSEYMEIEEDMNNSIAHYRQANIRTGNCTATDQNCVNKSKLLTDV
T1 sequence (P10499 whole entry): as above
Sequence of Drosophila Shaker K+ channel (Shaker IR) (Drosophila) (P08510 whole entry): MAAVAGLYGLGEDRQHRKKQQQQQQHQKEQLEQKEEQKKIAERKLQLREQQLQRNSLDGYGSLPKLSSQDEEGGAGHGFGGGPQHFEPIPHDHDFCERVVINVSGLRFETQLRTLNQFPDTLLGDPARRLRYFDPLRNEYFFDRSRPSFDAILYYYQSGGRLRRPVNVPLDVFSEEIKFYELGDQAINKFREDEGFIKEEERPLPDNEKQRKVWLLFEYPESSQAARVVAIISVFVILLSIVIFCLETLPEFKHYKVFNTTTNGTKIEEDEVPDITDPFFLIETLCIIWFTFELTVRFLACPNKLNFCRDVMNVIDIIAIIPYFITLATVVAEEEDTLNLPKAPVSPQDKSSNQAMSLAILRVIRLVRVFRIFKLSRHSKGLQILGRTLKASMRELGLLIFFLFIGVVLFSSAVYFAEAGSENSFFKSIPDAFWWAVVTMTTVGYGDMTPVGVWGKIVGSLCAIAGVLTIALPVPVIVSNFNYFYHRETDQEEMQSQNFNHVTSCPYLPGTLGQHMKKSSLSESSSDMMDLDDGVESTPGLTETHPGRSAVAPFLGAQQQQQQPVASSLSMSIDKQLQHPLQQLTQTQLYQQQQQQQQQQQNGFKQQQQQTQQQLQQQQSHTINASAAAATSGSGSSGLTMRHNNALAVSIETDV
Sequence of rKv1.3 (not stated (printed rKv1.1-rKv1.4, called mammalian; r read as rat)) (P15384 whole entry): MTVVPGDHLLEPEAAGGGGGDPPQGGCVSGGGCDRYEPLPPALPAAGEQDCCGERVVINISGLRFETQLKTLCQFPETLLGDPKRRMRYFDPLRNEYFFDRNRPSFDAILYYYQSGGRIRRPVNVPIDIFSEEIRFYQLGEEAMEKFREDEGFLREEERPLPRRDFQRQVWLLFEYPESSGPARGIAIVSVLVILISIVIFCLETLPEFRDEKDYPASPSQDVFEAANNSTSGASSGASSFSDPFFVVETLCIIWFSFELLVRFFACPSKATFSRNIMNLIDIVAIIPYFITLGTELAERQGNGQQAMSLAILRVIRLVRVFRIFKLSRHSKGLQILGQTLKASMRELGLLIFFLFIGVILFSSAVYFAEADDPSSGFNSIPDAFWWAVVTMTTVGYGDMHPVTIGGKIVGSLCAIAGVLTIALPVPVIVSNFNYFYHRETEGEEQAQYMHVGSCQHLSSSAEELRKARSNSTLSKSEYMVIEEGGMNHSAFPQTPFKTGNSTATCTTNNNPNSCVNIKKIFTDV
Sequence of rKv1.2 (not stated (printed rKv1.1-rKv1.4, called mammalian; r read as rat)) (P63142 whole entry): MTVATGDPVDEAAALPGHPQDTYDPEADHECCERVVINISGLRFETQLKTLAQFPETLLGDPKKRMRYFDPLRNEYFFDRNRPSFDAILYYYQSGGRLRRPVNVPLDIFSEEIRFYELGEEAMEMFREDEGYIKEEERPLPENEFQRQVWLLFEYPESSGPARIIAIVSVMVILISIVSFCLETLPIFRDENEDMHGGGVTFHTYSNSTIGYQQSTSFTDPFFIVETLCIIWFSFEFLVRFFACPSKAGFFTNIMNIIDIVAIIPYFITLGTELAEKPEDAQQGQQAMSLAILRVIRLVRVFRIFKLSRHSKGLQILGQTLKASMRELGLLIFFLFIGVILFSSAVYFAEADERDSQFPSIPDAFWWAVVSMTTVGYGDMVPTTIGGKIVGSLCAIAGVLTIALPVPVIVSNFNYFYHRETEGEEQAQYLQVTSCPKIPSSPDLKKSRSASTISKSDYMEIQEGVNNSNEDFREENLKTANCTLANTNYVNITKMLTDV

## CC[C@H](C)[C@@H]1NC(=O)[C@H](CC(N)=O)NC(=O)[C@H]([C@@H](C)O)NC(=O)CNC(=O)[C@H](CCCNC(=N)N)NC(=O)[C@H](CCCNC(=N)N)NC(=O)[C@H](CCCCN)NC(=O)[C@@H]2CSSC[C@@H]3NC(=O)[C@H](CC(C)C)NC(=O)[C@H](CCCCN)NC(=O)[C@H](CC(C)C)NC(=O)[C@H](Cc4c[nH]cn4)NC(=O)[C@@H]4CCCN4C(=O)[C@H](CC(C)C)NC(=O)[C@@H](NC(=O)[C@H](CC(=O)O)NC(=O)CN)CSSC[C@H](NC(=O)[C@H](CSSC[C@@H](C(=O)N[C@@H](CCCNC(=N)N)C(=O)O)NC(=O)[C@H](CCCNC(=N)N)NC(=O)[C@H](CCCCN)NC(=O)[C@H](CCC(=O)O)NC1=O)NC(=O)[C@H](CC(=O)O)NC(=O)[C@H](CCCCN)NC(=O)[C@H](CC(N)=O)NC(=O)[C@H](CCC(=O)O)NC(=O)[C@H](CCCCN)NC3=O)C(=O)N[C@@H](CO)C(=O)N[C@@H](CCCCN)C(=O)N[C@@H](CCCCN)C(=O)N2 [MCa, reference compound] (H-GDCLPHLKLCKENKDCCSKKCKRRGTNIEKRCR-OH; disulfide 3-17, 10-21, 16-32)
rKv1.1; dose-response, each point mean±S.E. (n=3), read-out: IC50, inhibition of rKv1.1 currents
  IC50: 21.9 ± 1.04 µM
mice
  LD50: 20 μg/mouse

## CC[C@H](C)[C@@H]1NC(=O)[C@@H]2CSSC[C@@H]3NC(=O)[C@H](CCCCN)NC(=O)[C@H](CCCCN)NC(=O)[C@H](CC(N)=O)NC(=O)[C@H](CC(C)C)NC(=O)[C@H](CCCNC(=N)N)NC(=O)[C@H](CC(N)=O)NC(=O)[C@@H](NC(=O)CN)CSSC[C@H](NC(=O)[C@H](CSSC[C@@H](C(=O)N[C@@H](CCCNC(=N)N)C(=O)N4CCC[C@H]4C(=O)N[C@@H](CC(=O)O)C(=O)N[C@H](C(=O)NCC(=O)N4CCC[C@H]4C(=O)O)C(C)C)NC(=O)[C@H](Cc4ccc(O)cc4)NC(=O)[C@H](Cc4ccc(O)cc4)NC(=O)[C@H](CC(N)=O)NC(=O)[C@H](C(C)C)NC(=O)CNC(=O)[C@H]([C@@H](C)O)NC(=O)[C@H](CO)NC1=O)NC(=O)[C@H](CC(=O)O)NC(=O)[C@H](C)NC(=O)[C@H](CC(=O)O)NC(=O)[C@H](CO)NC(=O)[C@H](CC(N)=O)NC3=O)C(=O)N[C@@H](CCCNC(=N)N)C(=O)N[C@@H](Cc1ccc(O)cc1)C(=O)NCC(=O)N[C@@H](CCC(=O)O)C(=O)N[C@@H](CCCNC(=N)N)C(=O)N2 [λ-MK1] (H-GCNRLNKKCNSDADCCRYGERCISTGVNYYCRPDVGP-OH; disulfide 2-16, 9-22, 15-31)
[1]; 10 μM, Xenopus oocytes, 250 ms depolarization to 0 mV from −90 mV, mean±S.E. (n=3)
  reduction of Shaker channel currents: 44.7±10.2%
[1]; dose-response fitted by Hill equation, each point mean±S.E. (n=3), read-out: peptide concentration at half-maximal efficacy (IC50), Shaker channel
  IC50: 12.3 ± 0.96 µM
[2]
  chemical stability (non-enzymatic hydrolysis, Val35–Gly36 peptide bond): instability of a peptide bond between Val^35 and Gly^36 in an alkaline environment

## imperatoxin A (GDCLPHLKRCKADNDCCGKKCKRRGTNAEKRCR; UniProt P59868 1-33, looked up)
[3]
  activation of Ca2+ release channels/ryanodine receptors: activators of sarcoplasmic reticulum Ca^2+ release channels/ryanodine receptors of skeletal and cardiac muscles

## jingzhaotoxin-III: tarantula toxin, an Na^+ channel blocker with an ICK fold (DGECGGFWWKCGRGKPPCCKGYACSKTWGWCAVEAP; also: ICK fold, disulfide pairing not given here; UniProt P62520 28-63, looked up)
Na^+ channel
  Na+ channel block: Na^+ channel blocker

## leiurotoxin I: a scorpion α-KTx (AFCNLRMCQLSCRSLGLLGKCIGDKCECVKH; ends and bridges not checked; cysteine pairing not given here; UniProt P16341 1-31, looked up)
[4]
  effect of C-terminal amidation on affinity for apamin-sensitive SKCa channels: increase the affinity

## λ-MK1a: the amidated peptide of λ-MK1, three disulfide bridges (GCNRLNKKCNSDADCCRYGERCISTGVNYYCRPDFGP-NH2; disulfide (positions not given here))
[1]; Xenopus oocytes
  activity on the Shaker channel after C-terminal modification: switched the target of λ-MK1 from the Shaker channel to mammalian Kv channels
[1]; Xenopus oocytes, listed as C-terminal amidation
  activity on the Shaker channel after C-terminal modification: loss of activity on the Shaker channel
rKv1.1; 10 μM, 250 ms depolarization to 0 mV from −90 mV, mean±S.E. (n=3)
  current reduction of rKv1.1: 7.7±1.8%
rKv1.2
  current reduction of rKv1.2: 25.3±3.6%
rKv1.3
  current reduction of rKv1.3: 9.0±3.2%
rKv1.4
  current reduction of rKv1.4: 35.7±4.26%
[2]
  chemical stability (non-enzymatic hydrolysis, Val35–Gly36 peptide bond): completely inhibited the non-enzymatic hydrolysis of the peptide
[2]; RP-HPLC, relative to λ-MK1
  refolding efficiency: largely improved its refolding efficiency

## GCNRLNKKCNSDADCCRYGERCISTGVNYYCRPDFGP [λ-MeuKTx-1]
[5]
  reduction of Shaker channel currents at 10 μM peptide, two-electrode voltage clamp in Xenopus oocytes: 44.7%

## GDCLPHLKLCKENKDCCSKKCKRRGTNIEKRCR [maurocalcine]
[6]
  IC50 of inhibition of rKv1.1 currents, dose-response, two-electrode voltage clamp in Xenopus oocytes: 21.9 µM

B1: λ-MK1a (peptide)
chain: GCNRLNKKCNSDADCCRYGERCISTGVNYYCRPDFGP-NH2
modifications: disulfide (positions not given here); not fully specified (bridges); ends not checked; also: three disulfide bridges, pairing not given here
[7]
  reduction of rKv1.1 currents at 10 μM peptide, two-electrode voltage clamp in Xenopus oocytes: 7.7%
[8]
  reduction of rKv1.2 currents at 10 μM peptide, two-electrode voltage clamp in Xenopus oocytes: 25.3%
[9]
  reduction of rKv1.3 currents at 10 μM peptide, two-electrode voltage clamp in Xenopus oocytes: 9%
[10]
  reduction of rKv1.4 currents at 10 μM peptide, two-electrode voltage clamp in Xenopus oocytes: 35.7%
